Results on 2 molecules are retold here after US20250099409A1, “TOPICAL THERAPEUTIC” (Beta Biofuel Solutions, LLC, priority 2022, published 2025).

Test [1] has as its system severe mouth sores, pain, and skin eruptions. The test can be described thus: Example 7: Patient G, oral spray in cancer patient on Taxotere and Carboplatin chemotherapy. It is filed as in vivo, human. How it is done: Set up: The trial consisted of administering a topical therapeutic spray to a cancer patient receiving Taxotere and Carboplatin chemotherapy. The side effects of cancer treatment presented the patient with severe mouth sores, pain, and skin eruptions which prevented regular mastication and intake of food and some beverages. Patient G's tastebuds were also severely affected, and the taste was unreliable. […] About 250 mg/L concentration of sodium pyruvate oral spray was administered inside the mouth and throat at 1 ml per spray, two to three sprays per administration. […] The product was used ad hoc to provide continuous comfort as saliva reintroduced the chemicals causing discomfort. […] However, issues with taste were not improved with the topical therapeutic spray.

The subject of test [2] is rhinitis, and burning in the nose and throat resulting from secondhand cigarette smoke. Kind of test: Example 1: Patient A, topical therapeutic spray to nasal cavities and throat. It is filed as in vivo, human. How it is done:
Set up: The trial consisted of administering a topical therapeutic spray to a patient suffering from rhinitis, and burning in the nose and throat resulting from persistent and long-term exposure to secondhand cigarette smoke. About 250 mg/L concentration of sodium pyruvate incorporated spray was administered to the nasal cavities and throat at about 1 ml per spray, administered two to three sprays per administration.
The spray treatment was re-applied a couple of hours later. […] The spray was applied prophylactically before bed.

Test [3] concerns epidermal disturbances from psoriatic plaques. Kind of test: Example 2: Patient B, topical therapeutic wipe on psoriatic plaques on the back. In kind it is in vivo, human. How it is done:
Set up: The trial consisted of administering a topical therapeutic wipe to patients suffering from epidermal disturbances from psoriatic plaques. […] About 250 mg/L concentration of sodium pyruvate formulated with glycerin emollient imbued was administered to the affected area via an imbued wipe. The treatment was applied twice a day, once in the morning and once in the evening.

Test [4] shares this test system. Kind of test: Example 3: Patient C, roll-on on psoriatic plaques behind ears and scalp. It is filed as in vivo, human. How it is done:
Set up: The trial consisted of administering a topical therapeutic spray to a patient suffering from epidermal disturbances from psoriatic plaques. […] About 250 mg/L concentration of sodium pyruvate formulated with glycerin emollient was administered to the affected area via an imbued roll-on. The treatment was applied twice a day, once in the morning and once in the evening.

Test [5] relates to redness and burning on the general epidermis and deep muscle pain post-radiation therapy. The test can be described thus: Example 4: Patient D, spray and wipe in breast cancer patient post-radiation therapy. In kind it is in vivo, human. The source says:
Set up: The trial consisted of administering a topical therapeutic spray and wipe to a breast cancer patient suffering from redness and burning on the general epidermis and deep muscle pain post-radiation therapy treatment. The patient received 30 daily radiation treatments in just over a month. […] The topical therapeutic spray was used afterwards ad hoc.

Test [6] relates to severe burning, itching, and peeling in the urethral, vaginal, and anal areas. The test can be described thus: Example 5: Patient E, imbued wipe in patient on Taxotere and Carboplatin chemotherapy with monoclonal antibody infusion. In kind it is in vivo, human. The conditions noted are these: continued administration of wipe. How it is done: Set up: The trial consisted of administering a topical therapeutic imbued wipe to a patient receiving a concurrent Taxotere and Carboplatin chemotherapy, with monoclonal antibody infusion treatments. The side effects of cancer treatment presented the patient with severe burning, itching, and peeling in the urethral, vaginal, and anal areas due to the elimination of the chemicals via urine and stools. About 250 mg/L concentration of sodium pyruvate formulated with glycerin emollient wipe was used to clean the affected areas after elimination, in addition to when the discomforts were present.
Patient E continued using the topical treatment concurrently with cancer therapy, and for about a month after.

Test [7] deals with redness, itchy splotches on the underside of the body, and fur-less areas around the ears due to ragweed pollen sensitivity. Kind of test: Example 6: Patient F, spray on dog with ragweed pollen sensitivity. In kind it is in vivo, Jack Russel Terrier. How it is done: Set up: The trial consisted of administering a topical therapeutic spray to a 5-year-old Jack Russel Terrier suffering from redness, itchy splotches on the underside of the body, and fur-less areas around the ears due to ragweed pollen sensitivity. […] After cleaning with water and drying the affected areas, about 250 mg/L concentration of sodium pyruvate spray formulated with glycerin was applied to the undercarriage and ears.
Summary: After the first administration, the redness subsided, and the dog relaxed within 15 minutes. The treatment was administered after each time the dog went outside and continued throughout the ragweed pollen season.

Test [8] deals with moderate sunburn on the face, shoulders, and arms. Kind of test: Example 8: Patient H, spray on moderate sunburn. In kind it is in vivo, human. How it is done: Set up: The trial consisted of administering a topical therapeutic spray to a patient with moderate sunburn on the face, shoulders, and arms early in the summer season while working on a field project. The patient had used sunscreen, but due to the prolonged exposure, the effects of the sunburn were present. The face was particularly red as it was directly exposed to ultraviolet (UV) radiation and not covered by clothing. About 250 mg/L concentration of sodium pyruvate formulated with glycerin emollient spray was applied to the affected areas.
The spray was applied for another day until the redness subsided.

Test [9] deals with redness, burning, and skin inflammation after exposure to irritating vegetation, e.g., poison ivy. Kind of test: Example 9: Patient I, spray after exposure to irritating vegetation. It is filed as in vivo, human. The note with it: about 250 mg/L with glycerin emollient spray, after the first administration. How it is done: The affected area was cleaned with cold water without soap to remove the oils and waxes transferred from the plant. About 250 mg/L concentration of sodium pyruvate formulated with glycerin emollient spray was applied to the affected areas of the general epidermis.
The topical therapeutic spray was readministered ad hoc depending on the severity of the exposure.

Test [10] relates to burning throat due to atmospheric dryness, allergic reaction, or disease state reaction. The test can be described thus: Example 10: Patient J, oral spray for burning throat. It is filed as in vivo, human. The note with it: about 250 mg/L oral spray, 1 ml per spray, two to three sprays, after the first administration. How it is done:
Set up: The trial consisted of administering a topical therapeutic spray to a patient suffering from a burning throat due to atmospheric dryness, allergic reaction, or disease state reaction. About 250 mg/L concentration of sodium pyruvate oral spray was administered inside the mouth and throat at 1 ml per spray, two to three sprays per administration.
The product was used ad hoc to provide continuous comfort.

For the molecule `O=C([O-])O.[Na+]` [baking soda], in test [1] (applied to the affected areas as recommended, before the topical therapeutic), the “alleviation of mouth sores, pain and skin eruptions” value is listed as “did little to alleviate the problem”.
Turning to `CC(=O)C(=O)[O-].[Na+]` [sodium pyruvate, 2-oxopropanoic acid sodium salt], in [2] (about 250 mg/L spray re-applied a couple of hours later), the “effect of the second treatment on burning” value is “complete alleviation of the burning to both the nose and throat”. Also, the “time to reduced burning or itching in the affected nasal and throat areas” value in test [2] (about 250 mg/L spray, about 1 ml per spray, two to three sprays, after the first administration) is no more than 15 min. Moreover, the “recurrence of pain and burning” value in test [2] (spray also applied prophylactically before bed) is given as “never returned”. In addition, the “outcome with continuous administration” value in test [3] (about 250 mg/L with glycerin emollient, imbued wipe, twice a day) was “itching and burning did not return, and the skin surface returned to normal form”; in test [4] (about 250 mg/L with glycerin emollient, imbued roll-on, twice a day), “itching and burning did not return and the skin surface returned to normal form”. Moreover, in test [3] (about 250 mg/L with glycerin emollient, imbued wipe, twice a day, after administration), the “time to reduced burning or itching” value is no more than 15 min. In [3] (treatment interrupted), the “outcome when treatment was interrupted” value was “the plaques returned along with itching and burning”. The “time to reduced burning and itching” value in test [4] (about 250 mg/L with glycerin emollient, imbued roll-on, twice a day, after administration) was no more than 15 min; in test [9], no more than 15 min. Further, the “outcome when administration was interrupted” value in [4] (administration interrupted) was “the plaques returned along with itching and burning”; in test [7] (during the pollen season, administration interrupted), “the itching, redness, and scratching returned”. Also, the “time to reduction in burning” value in [5] (about 250 mg/L with glycerin emollient, after the first administration via an imbued cloth wipe) is no more than 30 min. In addition, the “blistering to the skin” value in [5] (about 250 mg/L with glycerin emollient, imbued cloth wipe) was “without any blistering to the skin”. In addition, the “browning of the affected area (remark of radiation oncologist at follow-up visits)” value in [5] (wipe, then spray ad hoc) is reported as “dissipated more rapidly than usual”. Also, the “sloughing of damaged skin” value in [6] is on record as “ceased within a few days of continued administration”. For the same molecule, in test [7] (about 250 mg/L spray with glycerin on undercarriage and ears, after the first administration), the “time until the redness subsided and the dog relaxed” value is no more than 15 min. Also, the “time to almost complete relief of pain and burn” value in test [1] (about 250 mg/L oral spray, 1 ml per spray, two to three sprays, after the first administration) is no more than 30 min. Moreover, the “consumption of food and drinks” value in test [1] (oral spray used ad hoc) is “able to regularly consume food and drinks without discomfort”. In addition, the issues with taste entry in [1] (oral spray used ad hoc) was “not improved”. For the same molecule, the “sores, pain and discomfort with use of the spray” value in [1] (oral spray used ad hoc) is “the sores resolved, and the pain and discomfort were managed”. In addition, the “time to reduced burning” value in test [8] (about 250 mg/L with glycerin emollient spray, after the first administration) is no more than 15 min. Besides, in test [8] (spray applied for another day until the redness subsided), the “blistering and peeling of the skin due to sunburn” value is “aided in the prevention of blistering and peeling”. In addition, the “time to reduced burning, itching, and general discomfort” value in test [10] is no more than 15 min.
